The text below walks through data of patent publication US20240287047A1, “PESTICIDALLY ACTIVE DIAZINE-AMIDE COMPOUNDS” (SYNGENTA CROP PROTECTION AG, priority 2021, published 2024).

Assay type in all cases: in vivo
Assay [1] concerns Myzus persicae. The experiment in a line: Example B3: Myzus persicae (green peach aphid) intrinsic activity. Particulars: 120 h, test rate of 12 ppm, 5 days after infestation. How it is done: Test compounds prepared from 10′000 ppm DMSO stock solutions were applied by pipette into 24-well microtiter plates and mixed with sucrose solution. The plates were closed with a stretched Parafilm. A plastic stencil with 24 holes was placed onto the plate and infested pea seedlings were placed directly on the Parafilm. The infested plate was closed with a gel blotting paper and another plastic stencil and then turned upside down. The samples were assessed for mortality 5 days after infestation.

For assay [2], the system named is Diabrotica balteata. In words: Example B2: Diabrotica balteata (corn root worm), maize sprouts, L2 larvae. Conditions: for percent control (mortality or growth inhibition) at 200 ppm: Diabrotica balteata, 96 h, application rate of 200 ppm, 4 days after infestation, read-out: control in at least one of the two categories (mortality or growth inhibition). How it is done: Maize sprouts placed onto an agar layer in 24-well microtiter plates were treated with aqueous test solutions prepared from 10,000 ppm DMSO stock solutions by spraying. After drying, the plates were infested with L2 larvae (6 to 10 per well). The samples were assessed for mortality and growth inhibition in comparison to untreated samples 4 days after infestation.

The test system of assay [3] is Plutella xylostella. In words: Example B4: Plutella xylostella (diamond back moth), artificial diet, eggs. Particulars: Plutella xylostella, 192 h; application rate of 200 ppm; 8 days after infestation; read-out: control in at least one of the two categories (mortality or growth inhibition). How it is done: 24-well microtiter plates with artificial diet were treated with aqueous test solutions prepared from 10′000 ppm DMSO stock solutions by pipetting. After drying, Plutella eggs were pipetted through a plastic stencil onto a gel blotting paper and the plate was closed with it. The samples were assessed for mortality and growth inhibition in comparison to untreated samples 8 days after infestation.

In assay [4] the test system is Spodoptera littoralis. In words: Example B5: Spodoptera littoralis (Egyptian cotton leaf worm), cotton leaf discs, L1 larvae. Conditions: foliar, 72 h, application rate of 200 ppm, 3 days after infestation, read-out: control in at least one of the three categories (mortality, anti-feedant effect, or growth inhibition). How it is done: Cotton leaf discs were placed onto agar in 24-well microtiter plates and sprayed with aqueous test solutions prepared from 10,000 ppm DMSO stock solutions. After drying the leaf discs were infested with five L1 larvae. The samples were assessed for mortality, anti-feeding effect, and growth inhibition in comparison to untreated samples 3 days after infestation. Control of Spodoptera littoralis by a test sample is given when at least one of the categories mortality, anti-feedant effect, and growth inhibition is higher than the untreated sample.

The subject of assay [5] is Chilo suppressalis. The experiment in a line: Example B1: Chilo suppressalis (striped rice stemborer), artificial diet, L2 larvae. Conditions: 144 h, application rate of 200 ppm, 6 days after infestation, read-out: control in at least one of the three categories (mortality, anti-feedant effect, or growth inhibition). On the procedure:
24-well microtiter plates with artificial diet were treated with aqueous test solutions prepared from 10,000 ppm DMSO stock solutions by pipetting. After drying, the plates were infested with L2 larvae (6-8 per well). The samples were assessed for mortality, anti-feeding effect, and growth inhibition in comparison to untreated samples 6 days after infestation. Control of Chilo suppressalis by a test sample is given when at least one of the categories mortality, anti-feedant effect, and growth inhibition is higher than the untreated sample.

By mortality is commonly meant the percentage killed.

A value given as a limit tells only on which side of the number the result lay.

With `CC(NC(=O)c1cc(OC(F)F)cc(OC(F)F)c1)c1nccnc1-c1cnccn1` (stereo not drawn) [Compound P2, 3,5-bis(difluoromethoxy)-N-[1-(3-pyrazin-2-ylpyrazin-2-yl)ethyl]benzamide], the mortality at 12 ppm in assay [1] is at least 80%. In addition, the percent control (mortality or growth inhibition) at 200 ppm in assay [2] and in assay [3] was at least 80% each time. The percent control (mortality, anti-feedant effect or growth inhibition) at 200 ppm in assay [4] and in assay [5] was at least 80% each time.

Turning to `CC(NC(=O)c1cc(C(F)(F)F)cc(S(C)(=O)=O)c1)c1nccnc1-c1cnccn1` (stereo not drawn) [Compound P16, 3-methylsulfonyl-N-[1-(3-pyrazin-2-ylpyrazin-2-yl)ethyl]-5-(trifluoromethyl)benzamide], the mortality at 12 ppm in assay [1] was at least 80%. The percent control (mortality or growth inhibition) at 200 ppm in assay [2] and in assay [3] was at least 80% each time. The percent control (mortality, anti-feedant effect or growth inhibition) at 200 ppm in assay [4] and in assay [5] was at least 80% throughout.

As to `CC(NC(=O)c1cc(I)cc(C(F)(F)F)c1)c1nccnc1-c1cnc(Cl)cn1` (stereo not drawn) [Compound P34, N-[1-[3-(5-chloropyrazin-2-yl)pyrazin-2-yl]ethyl]-3-iodo-5-(trifluoromethyl)benzamide], the percent control (mortality or growth inhibition) at 200 ppm in assay [2] and in assay [3] was at least 80% throughout. The percent control (mortality, anti-feedant effect or growth inhibition) at 200 ppm in assay [4] and in assay [5] was at least 80% in each case.

Regarding `C[C@H](NC(=O)c1cc(C(F)F)cc(C(F)(F)F)c1)c1nccnc1-c1cnccn1` [Compound E8, 3-(difluoromethyl)-N-[(1S)-1-(3-pyrazin-2-ylpyrazin-2-yl)ethyl]-5-(trifluoromethyl)benzamide], the percent control (mortality or growth inhibition) at 200 ppm in assay [2] and in assay [3] was at least 80% each time. The percent control (mortality, anti-feedant effect or growth inhibition) at 200 ppm in assay [4] and in assay [5] was at least 80% each time.

Take `CC(c1nccnc1-c1cnccn1)N(C)C(=O)c1cc(Cl)nc(C2(C#N)CC2)c1` (stereo not drawn) [Compound P29, 2-chloro-6-(1-cyanocyclopropyl)-N-methyl-N-[1-(3-pyrazin-2-ylpyrazin-2-yl)ethyl]pyridine-4-carboxamide]: the percent control (mortality or growth inhibition) at 200 ppm in assay [2] and in assay [3] was at least 80% in each case. Also, the percent control (mortality, anti-feedant effect or growth inhibition) at 200 ppm in assay [4] and in assay [5] was at least 80% in each case.

`CC(NC(=O)c1cc(C(F)(F)F)cc(S(C)(=O)=O)c1)c1nccnc1-c1cnc(Cl)cn1` (stereo not drawn) [Compound P35, N-[1-[3-(5-chloropyrazin-2-yl)pyrazin-2-yl]ethyl]-3-methylsulfonyl-5-(trifluoromethyl)benzamide]: the percent control (mortality or growth inhibition) at 200 ppm in assay [2] and in assay [3] was at least 80% in each case. The percent control (mortality, anti-feedant effect or growth inhibition) at 200 ppm in assay [4] and in assay [5] was at least 80% each time.

`CC(NC(=O)c1cc(OC(F)F)cc(C2(C#N)CC2)c1)c1nccnc1-c1cnccn1` (stereo not drawn) [Compound P32, 3-(1-cyanocyclopropyl)-5-(difluoromethoxy)-N-[1-(3-pyrazin-2-ylpyrazin-2-yl)ethyl]benzamide] showed a mortality at 12 ppm in assay [1] of at least 80%. The percent control (mortality, anti-feedant effect or growth inhibition) at 200 ppm in assay [4] and in assay [5] was at least 80% in each case.

With `CC(NC(=O)c1cc(Cl)cc(I)c1)c1nccnc1-c1cnccn1` (stereo not drawn) [Compound P13, 3-chloro-5-iodo-N-[1-(3-pyrazin-2-ylpyrazin-2-yl)ethyl]benzamide], the percent control (mortality or growth inhibition) at 200 ppm in assay [2] and in assay [3] was at least 80% each time. For the same compound, the percent control (mortality, anti-feedant effect or growth inhibition) at 200 ppm in assay [4] and in assay [5] was at least 80% in each case.

For `C[C@H](NC(=O)c1cc(I)cc(C(F)(F)F)c1)c1nccnc1-c1cnccn1` [Compound E4, 3-iodo-N-[(1S)-1-(3-pyrazin-2-ylpyrazin-2-yl)ethyl]-5-(trifluoromethyl)benzamide], the percent control (mortality or growth inhibition) at 200 ppm in assay [2] and in assay [3] was at least 80% throughout. For the same compound, the percent control (mortality, anti-feedant effect or growth inhibition) at 200 ppm in assay [4] and in assay [5] was at least 80% each time.

Turning to `CC(NC(=O)c1cc(C(F)(F)F)cc(C(C)(C)C#N)c1)c1nccnc1-c1cnc(Cl)cn1` (stereo not drawn) [Compound P37, N-[1-[3-(5-chloropyrazin-2-yl)pyrazin-2-yl]ethyl]-3-(1-cyano-1-methyl-ethyl)-5-(trifluoromethyl)benzamide], the percent control (mortality or growth inhibition) at 200 ppm in assay [2] and in assay [3] was at least 80% each time. Besides, the percent control (mortality, anti-feedant effect or growth inhibition) at 200 ppm in assay [4] and in assay [5] was at least 80% in each case.

`CC(NC(=O)c1cc(Br)nc(C2(C#N)CC2)c1)c1nccnc1-c1cnccn1` (stereo not drawn) [Compound P3, 2-bromo-6-(1-cyanocyclopropyl)-N-[1-(3-pyrazin-2-ylpyrazin-2-yl)ethyl]pyridine-4-carboxamide]: the percent control (mortality or growth inhibition) at 200 ppm in assay [2] and in assay [3] was at least 80% each time. In addition, the percent control (mortality, anti-feedant effect or growth inhibition) at 200 ppm in assay [4] and in assay [5] was at least 80% in each case.

In the case of `CC(NC(=O)c1cc(C(F)(F)F)cc(C(C)(C)C#N)c1)c1nccnc1-c1cnccn1` (stereo not drawn) [Compound P5, 3-(1-cyano-1-methyl-ethyl)-N-[1-(3-pyrazin-2-ylpyrazin-2-yl)ethyl]-5-(trifluoromethyl)benzamide], the percent control (mortality or growth inhibition) at 200 ppm in assay [2] and in assay [3] was at least 80% in each case. For the same compound, the percent control (mortality, anti-feedant effect or growth inhibition) at 200 ppm in assay [4] and in assay [5] was at least 80% each time.

For the compound `C[C@@H](c1nccnc1-c1cnccn1)N(C)C(=O)c1cc(C(F)(F)F)cc(C(C)(C)C#N)c1` [Compound E12, 3-(1-cyano-1-methyl-ethyl)-N-methyl-N-[(1S)-1-(3-pyrazin-2-ylpyrazin-2-yl)ethyl]-5-(trifluoromethyl)benzamide], in assay [1], the mortality at 12 ppm is at least 80%. Further, the percent control (mortality or growth inhibition) at 200 ppm in assay [2] is at least 80%. For the same compound, the percent control (mortality, anti-feedant effect or growth inhibition) at 200 ppm in assay [4] was at least 80%.

As to `CC(NC(=O)c1cc(C2CC2)nc(C(F)(F)F)c1)c1nccnc1-c1cnccn1` (stereo not drawn) [Compound P11, 2-cyclopropyl-N-[1-(3-pyrazin-2-ylpyrazin-2-yl)ethyl]-6-(trifluoromethyl)pyridine-4-carboxamide], the percent control (mortality or growth inhibition) at 200 ppm in assay [2] and in assay [3] was at least 80% in each case. Further, the percent control (mortality, anti-feedant effect or growth inhibition) at 200 ppm in assay [4] and in assay [5] was at least 80% in each case.

For `CC(NC(=O)c1cc(Br)cc(I)c1)c1nccnc1-c1cnccn1` (stereo not drawn) [Compound P24, 3-bromo-5-iodo-N-[1-(3-pyrazin-2-ylpyrazin-2-yl)ethyl]benzamide], the percent control (mortality or growth inhibition) at 200 ppm in assay [2] and in assay [3] was at least 80% in each case. Further, the percent control (mortality, anti-feedant effect or growth inhibition) at 200 ppm in assay [4] and in assay [5] was at least 80% in each case.

Consider `CC(NC(=O)c1cc(C(F)(F)F)nc(C2(C#N)CC2)c1)c1nccnc1-c1cnccn1` (stereo not drawn) [Compound P4], for which the percent control (mortality or growth inhibition) at 200 ppm in assay [2] and in assay [3] was at least 80% each time. In addition, the percent control (mortality, anti-feedant effect or growth inhibition) at 200 ppm in assay [4] and in assay [5] was at least 80% in each case.

Consider `CC(NC(=O)c1cc(C(F)F)cc(C(F)(F)F)c1)c1nccnc1-c1cnccn1` (stereo not drawn) [Compound P10, 3-(difluoromethyl)-N-[1-(3-pyrazin-2-ylpyrazin-2-yl)ethyl]-5-(trifluoromethyl)benzamide], for which the mortality at 50 ppm in assay [2] (Concentration 50 ppm, Diabrotica balteata (Example B32)) is 100%. The percent control (mortality or growth inhibition) at 200 ppm in assay [2] and in assay [3] was at least 80% in each case. The percent control (mortality, anti-feedant effect or growth inhibition) at 200 ppm in assay [4] and in assay [5] was at least 80% in each case.
